Reference: patent US20210213135A1 (Purdue Research Foundation, priority 2018, published 2021)
Bridges are numbered along the chain shown (N, C = ends). Primed or numbered codes have the meaning given here. Where no end group is shown, it is not given here. [ ]: non-standard residue; d: D form. mp4″ = 4 mini PEG linker (mini-PEG spacer); PEG10′ = polyethylene glycol 10 linker; minipeg = minipeg spacer; Dap = NC[C@H](N)C(=O)O

Legend:
[1] = tested on: Swiss Webster fracture-bearing mice (fracture callus); assay: micro CT of the fracture callus in the femur fracture model; assay type: in vivo
[2] = tested on: Swiss Webster fracture-bearing mice (healed femur); assay: postmortem 4 point bend of the healed femur; assay type: in vivo
Source text: All in vivo data included herein are from Swiss Webster mice. All mice received an osteotomy on their right femur and received subcutaneous drug administration daily for either 2,3 or 4 weeks, or 17 days, as indicated, for each compound. 1× concentration represents 1 nmol/day, 10× represents 10 nmol/day, 100× represents 100 nmol/day most studies have an n of 5.
The term “Peak Load” means a postmortem 4 point bend of the healed femur. Peak load represents the maximum force the healed femur withstood before it refractured.
The targeted conjugates were synthesized using standard Fmoc solid-phase peptide synthesis, as described above. To ensure the conjugates' activity, mouse pre-osteoblast ([…]) cells were treated with the targeted and untargeted compounds for three days at concentrations from 1 pM to 100 nM. After three days of treatment, the cells were harvested, and the RNA was purified from the cells. Expression levels of ALP, RUNx2 (transcription factor for osteoblast differentiation), osterix (OSX), osteopontin (OPN), collagen 1A (Col-1A), OPG, RANKL, sclerostin gene (SOST), and OC were quantified via quantitative reverse transcription polymerase chain reaction (RT-qPCR). Once the biological activity of the conjugates was confirmed, they were tested in vivo in a fracture model. Aseptic surgical techniques were used to place a 23-gage needle as in intramedullary nail in the femur of anesthetized, 12-week-old Swiss Webster mice for internal fixation before fracture. Femur fractures were induced using a drop weight fracture device from RISystem. The mice received buprenorphine for three days post fracture. The mice were dosed subcutaneously each day for three weeks or 17 days. Fracture healing was assessed using microCT (Scanco Medical Ag). Morphometric parameters were quantified in the 100 widest slices of the fracture callus. Trabecular thickness (Tb.Th.), trabecular spacing (Tb.Sp.), total volume (TV), and volume of calcified callus (BV) were calculated. Fractured femurs were tested for strength in a four-point bend to failure using an Electro Force TestBench (TA Instruments). Lower supports were 10 mm apart on the anterior face of the femur in contact with the proximal and distal diaphysis. Upper supports were 4 mm apart and spanned the entire fracture callus on the diaphysis. Force was applied from the posterior face of the femur with a displacement rate of 0.3 mm/sec. Peak load, yield load, stiffness, displacement post yield, work to fracture, and deformation data were generated. Statistical analysis was performed using a two-way analysis of variance (ANOVA) and a Tukey post-hoc analysis with significance reported at the 95% confidence level. All animal experiments were performed in accordance with protocols approved by Purdue University's Institutional Animal Care and Use Committee (IACUC).

[3] = 3 weeks, 0.1, 1 and 10 nmol daily s.c.
[4] = 3 weeks, 0.1, 1 and 10 nmol daily s.c., n=5
[5] = 3 weeks, 1, 10 and 100 nmol daily s.c., n=5
[6] = 17 days, 0.1, 1 and 10 nmol daily s.c., n=5
[7] = 4 weeks, 1, 10 and 100 nmol/day
[8] = 2 weeks, 1, 10 and 100 nmol/day
[9] = 3 weeks, 1 and 10 nmol daily s.c., n=10

Substance: P-15_(D)E10: SEQ ID NO: 22, P15 collagen fragment conjugated with 10 glutamic acids (HGTPGPQGIAGQRGVV[dE][dE][dE][dE][dE][dE][dE][dE][dE][dE])
- BV/TV [1, 3]: raises bone density
- Max load (peak load) [2, 4]: raises bone strength

Substance: P-15_mp4_(D)E10: SEQ ID NO: 23, a P15 fragment connect via 4 peg2 spacers to (D)E10 bone targeting ligand (HGTPGPQGIAGQRGVVEEEEEEEEEE; 4 PEG2 spacers; D-glutamic acids; P15_mp4_e10)
- BV (bone volume) [1, 5]: raises bone mineralization
- BV/TV [1, 5]: raises bone density
- Max load (peak load) [2, 5]: raises bone strength
- Work to fracture [2, 5]: raises bone strength

Substance: LN2_P3_mp4_(D)E10: SEQ ID NO: 27, laminin a2 motif DLTIDDSYWYRI with N terminally attached minipeg 4 spacer and targeting ligand (H[dE][dE][dE][dE][dE][dE][dE][dE][dE][dE][mp4″]DLTIDDSYWYRI)
- BV (bone volume) [1, 6]: raises bone mineralization
- BV/TV [1, 6]: raises bone density
- Max load (peak load) [2, 6]: raises bone strength
- Work to fracture [2, 6]: raises bone strength

Substance: OGP-D10: SEQ ID NO: 2, osteogenic growth peptide conjugated with 10 aspartate acids: DDDDDDDDDDALKRQGRTLYGFGG (OGP D10)
- BV/TV ([1]; 2 weeks, 1 and 100 nmol/day): dose dependent manner
- TbSp ([1]; 2 weeks, 1 and 100 nmol/day): dose dependent manner
- TbTh ([1]; 2 weeks, 1 and 100 nmol/day): dose dependent manner

Substance: SPARC113_mp4_(D)E10: SEQ ID NO: 30, SPARC residues 113-127 conjugated via 4 minipegs with 10 glutamic acids (H[dE][dE][dE][dE][dE][dE][dE][dE][dE][dE][mp4″]TLEGTKKGHKLHLDY)
- BV (bone volume) [1, 6]: raises bone mineralization
- BV/TV [1, 6]: raises bone density
- Max load (peak load) [2, 6]: raises bone strength
- Work to fracture [2, 6]: raises bone strength

Substance: VIP D10: SEQ ID NO: 8, Vasoactive intestinal peptide conjugated with D10 (HHSDAVFTDNYTRLRKQMAVKKYLNSILNDDDDDDDDDD; Vasoactive intestinal peptide with D10 (VIP D10))
- BV/TV ([1]; 4 weeks, 1 nmol/day): healing was reflected as BV/TV
- TbTh ([1]; 4 weeks, 1 nmol/day): healing was reflected

Substance: CBM D10: SEQ ID NO: 9, collagen binding motif of osteopontin conjugated with 10 aspartate acids
- BV/TV [1, 3]: dose dependent manner

Substance: IKVAV_mp4_(D)E10: SEQ ID NO: 26, laminin fragment IKVAV conjugated via 4 minipegs with 10 glutamic acids (H[dE][dE][dE][dE][dE][dE][dE][dE][dE][dE][minipeg][minipeg][minipeg][minipeg]GQAASIKVAVSADR)
- BV/TV [1, 3]: raises bone density
- BV (bone volume) [1, 4]: raises bone mineralization
- Max load (peak load) [2, 4]: raises bone strength
- Work to fracture [2, 4]: raises bone strength

Substance: Ghrelin-D10: SEQ ID NO: 5, Ghrelin D10 with Ser-3 replaced with diaminopropionic acid (HG[Dap]FLSPEHQKAQQRKESKKPPAKLQPRDDDDDDDDDD; ends and bridges not checked)
- BV/TV [1, 7]: dose dependent manner

Substance: CTC_peg10_(D)E10: SEQ ID NO: 20, chemotactic collagen fragment CTC linked via polyethylene glycol 10 to 10 (D) glutamic acids (H[dE][dE][dE][dE][dE][dE][dE][dE][dE][dE][PEG10′]IAGVGGEKSGGF)
- BV/TV [1, 3]: raises bone density
- Max load (peak load) [2, 5]: improves bone strength

Substance: PHSRN_mp4_(D)E10: SEQ ID NO: 28, fibronectin peptide PHSRN with (D)e10 targeting ligand attached to N terminus via minipeg spacer (H[dE][dE][dE][dE][dE][dE][dE][dE][dE][dE][mp4″]PHSRN)
- BV (bone volume) [1, 6]: raises bone mineralization
- BV/TV [1, 6]: raises bone density
- Max load (peak load) [2, 6]: raises bone strength
- Work to fracture [2, 6]: raises bone strength

Substance: CNP D10: SEQ ID NO: 7, C-type Natriuretic peptide conjugated with 10 aspartate acids (HDDDDDDDDDDGLSKGCFGLKLDRIGSMSGLGC; disulfide 17-33)
- BV/TV ([1]; 4 weeks, 1 and 10 nmol/day): dose dependent manner

Substance: Preptin D10: SEQ ID NO: 3, Preptin conjugated with 10 aspartate acids (HDVSTSQAVLPDDFPRYDDDDDDDDDD; Preptin D10)
- BV (bone volume) [1, 8]: dose dependent manner
- BV/TV [1, 8]: dose dependent manner
- TbTh [1, 8]: dose dependent manner

Substance: substance P D10: SEQ ID NO: 4, substance P with 4 mini PEG linker and conjugated with 10 aspartate acids (DDDDDDDDDDRPKPQQFFGLM; 4 mini PEG linker; substance P 4 mini PEG D10 with; (10)..(11) 4 mini PEG linker)
- BV/TV [1, 7]: dose dependent manner
- Peak load (max load) of healed femur ([2]; 4 weeks, printed dose 0×): 30-35 Newtons

Substance: DGEA_mp4_(D)E10: SEQ ID NO: 24, DGEA with Serine and Proline on C terminus, 4 minipeg spacers and ten d glutamic acids (H[dE][dE][dE][dE][dE][dE][dE][dE][dE][dE][minipeg][minipeg][minipeg][minipeg]DGEASP)
- BV (bone volume) [1, 5]: raises bone mineralization
- BV/TV [1, 5]: raises bone density
- Max load (peak load) [2, 5]: raises bone strength
- Work to fracture [2, 5]: raises bone strength

Substance: P4 D10: SEQ ID NO: 10, P4 (knuckle epitope fragment of hBMP-2) conjugated with 10 aspartate acids (HKIPKASSVPTELSAISTLYLDDDDDDDDDD; P4 D10-a BMP2 fragment)
- BV (bone volume) ([1]; 4 weeks, 1 nmol/day): healing was reflected
- BV/TV ([1]; 4 weeks, 1 and 10 nmol/day): dose dependent manner

Substance: CTC_mp4_(D)E10: SEQ ID NO: 21, CTC linked via 4 minipegs to 10 (D) glutamic acids (H[dE][dE][dE][dE][dE][dE][dE][dE][dE][dE][minipeg][minipeg][minipeg][minipeg]IAGVGGEKSGGF)
- BV/TV [1, 9]: raises bone density
- Max load (peak load) [2, 9]: raises bone strength
- Work to fracture [2, 9]: raises bone strength

Substance: CBM(1-19)_D10: SEQ ID NO: 31, truncated version (1-19) of the collagen binding motif of human osteopontin targeted by D10 (HDDDDDDDDDDGLRSKSKKFRRPDIQYPDA; CBM(1-19)-D10 collagen binding motif)
- BV/TV [1, 5]: raises bone density
- Tbth (trabecular thickness) [1, 5]: raises bone quality
- Max load (peak load) [2, 5]: improves bone strength

Substance: CBD_MP4_(D)E10: SEQ ID NO: 32, 1-28 of osteopontin followed by 4 peg 2 spacers followed by ten d glutamic acids (HNGVFKYRPRYYLYKHAYFYPHLKRFPVQEEEEEEEEEE; 4 PEG2 spacers; D-glutamic acids; CBD _MP4_e10)
- BV/TV [1, 5]: raises bone density
- Tbth (trabecular thickness) [1, 5]: raises bone quality
- Work to fracture [2, 5]: improves bone strength

Substance: pBMP9 D10: SEQ ID NO: 6, peptide from knuckle epitope of human BMP-9 targeted with D10 (CGGKVGKACCVPTKLSPISVLYK[mp4″]DDDDDDDDDD; cysteine pairing not given here)
- BV (bone volume) [1, 7]: dose dependent manner
- BV/TV [1, 7]: dose dependent manner

Substance: ODP D10: SEQ ID NO: 13, Osteopontin-derived peptide conjugated with 10 aspartate acids (DDDDDDDDDD[mp4″]DVDVPDGRGDSLAYG)
- BV/TV ([1]; 4 weeks, 1 nmol/day): healing was reflected as BV/TV

Substance: MGF D10: SEQ ID NO: 11, Mechano-growth factor with 10 aspartate acids: DDDDDDDDDDYQPPSTNKNTKSQRRKGSTFEEHK (Mechano-growth factor (MGF) D10, an IGF-I fragment)
- BV/TV ([1]; 4 weeks, 1 and 10 nmol/day): dose dependent manner
